Data set [1] deals with allodynia. The data set is described as follows: Susceptibility of rat strains to anti-allodynia effects of lidocaine. Type of data set: in vivo, Sprague-Dawley versus Dark Agouti rats. The conditions noted are these: FIG. 11 legend.
A further data set relates to mechanical allodynia. In words: Mechanical allodynia in rat model of peripheral neuropathy (L5/L6 spinal nerve ligation), intrathecal, Example 2. Type of data set: in vivo, Sprague-Dawley rats. The conditions noted are these: for effect on mechanical allodynia (50% response threshold), 0.6 μmol: 0.6 μmol intrathecal. Here is the method: Experiments carried out in support of the present invention were performed in a rat model of peripheral neuropathy detailed in Example 2. Briefly, in the model used, rats are subjected to a surgical procedure, described by Kim and Chung (1992), designed to reproducibly injure peripheral nerves (spinal nerves L5 and L6). These rats develop a hyperesthetic state, which can be measured using one or more paradigms known in the art. Here, allodynia was measured by stimulation of neuropathic rat hindlimb using wire hairs having graded degrees of stiffness.
[…]. Test solutions at pH 6.58 were administered intrathecally as described above. Mechanical allodynia was measured by pressing nylon filaments of varying diameters against the paw. Data are expressed in terms of 50% response threshold, which is the median buckling weight required to evoke paw withdrawal; the lower the stimulus level, the more severe the allodynia.
Male Sprague-Dawley rats (200-350 gm) were prepared with chronic lumbar intrathecal catheters inserted under halothane anesthesia (Yaksh and Rudy). Animals were placed in a prone position and the left paraspinal muscles were separated from the spinous processes at the L4 -S2 levels, as described by Kim et al. The left L5 and L6 nerve roots were exposed and tightly ligated with 6-0 surgical silk suture. The rats were allowed to recover from anesthesia. Allodynia was typically observed to occur beginning 1-2 days post surgery and continuing for as long as 45 days. For testing, animals were placed in plastic cubicles with open wire mesh bottoms. Compound dissolved in preservative-free saline solution was administered in a volume of 10 μl through the intrathecal catheter, followed by 10 μl saline to flush the catheter line. Animals were tested for allodynia at various time points after drug treatment, as described below.
To assess the threshold of a non-noxious stimulus required to produce a left hind paw withdrawal (allodynia), Von Frey hairs (ranging from 0.4-15 grams), were systematically applied to the surgically treated hind paw. Failure to evoke a response was cause to test the next stiffer hair. Evocation of a brisk withdrawal response was cause to test the next lower stimulus intensity. This paradigm was repeated according to a statistical method (Dixon, 1976) to define the 50% response threshold.
Data in FIG. 6 are expressed in terms of 50% response threshold, which is the median buckling weight required to evoke paw withdrawal; the lower the stimulus level, the more severe the allodynia. Allodynia thresholds, measured 30 minutes after injection, were plotted against dosage. Each point represents a value for a single animal.

The nature of data set [2]: Metabolism of 14C lidocaine after IV administration, HPLC profile. Type of data set: in vivo, Harlan Sprague-Dawley and Dark Agouti rats. Particulars: 14C lidocaine IV, N=2.
Data set [3] has as its system allodynia. The conditions noted are these: Chaplan et al. 1995, IV or IT, cited from earlier work.

Molecules are shown by their SMILES. Like-named read-outs stand apart in the source and are kept apart here. Some results are limits rather than exact numbers.

On to `CCN(CC)CC(=O)Nc1c(C)cccc1C` [lidocaine], for which, in the data set on allodynia [1], the “susceptibility to anti-allodynia effects of lidocaine, Dark Agouti rats” value was “not similarly susceptible” and the “susceptibility to anti-allodynia effects of lidocaine, Sprague-Dawley rats” value is listed as “susceptible to anti-allodynia effects of Lidocaine”. For the same compound, in the data set on mechanical allodynia (pH 6.58), the “effect on mechanical allodynia (50% response threshold), 0.6 μmol” value is listed as “did not block mechanical allodynia”. The “glucuronidated 3-OH MEGX in elution profile, DA rats” value in data set [2] (Dark Agouti) was “absent from the profile of DA rats”. Besides, the “glucuronidated 3-OH MEGX in elution profile, SD rats” value in data set [2] (Sprague-Dawley) is listed as “a large peak in the elution profile of SD rats, found to consist of a glucuronidated form of 3-OH MEGX”. In the data set on allodynia [3], the “anti-allodynic effect of lidocaine” value is “no anti-allodynic effect after termination of motor block”. Moreover, the “anti-allodynic effect of lidocaine” value in the data set on allodynia [3] (listed as Lidocaine) is on record as “effective against allodynia by the intravenous, but not the intrathecal/regional routes”.

For the compound `CCNCC(=O)Nc1c(C)ccc(O)c1C` [3-hydroxy MEGX, 2-(ethylamino)-N-(3-hydroxy-2,6-dimethylphenyl) acetamide], the “effect on mechanical allodynia (50% response threshold), 0.3 μmol” value in the data set on mechanical allodynia (0.3 μmol intrathecal, pH 6.58) is given as “significant analgesic effects”. In addition, the “effect on mechanical allodynia (50% response threshold), 0.6 μmol” value with mechanical allodynia (pH 6.58) is on record as “significant analgesic effects”. Also, in the data set with mechanical allodynia (intrathecal, single bolus, n=6 animals/treatment), the “time of peak elevation of response (blockade of allodynia)” value was 30 to 60 min. Besides, in the data set with mechanical allodynia (intrathecal, varying doses, n=6 animals/treatment), the “elevation of threshold response” value was “resulted in elevation of threshold response”. In addition, the “possible maximum duration of effect of a single bolus injection” value in the data set with mechanical allodynia (intrathecal, "possibly up to") is listed as “up to 20 hours”. In addition, the “duration of effect of a single bolus injection” value in the data set with mechanical allodynia (intrathecal, lasting in excess of) was more than 3 h.

The values above are taken from patent US6166085A, “Method of producing analgesia” (priority 1996, dated 2000).
